Test results from patent US20230241073A1, “PHARMACEUTICAL COMPOSITION FOR PREVENTING OR TREATING NON-SMALL CELL LUNG CANCER ASSOCIATED WITH RON MUTANTATION, AND METHOD USING SAME” (WELLMARKER BIO CO., LTD., priority 2020, published 2023).
Where a name gives a salt, the structure may show the parent alone.

Columns and labels:
[1] = tested on: A549 non-small cell lung cancer cell line of a mutation RONΔ155 type; assay: Cell killing efficacy, trypan blue exclusion assay, A549; format: cell-based; details: A549, 1 μM, 48 hours, FIG. 1
Description: (§1) A549 and NCI-H358, which are non-small cell lung cancer cell lines of a mutation RONΔ155 type, were dispensed, and 24 hours later, treated with 1 μM of the compounds of Examples 1 (WM-S1-030) to 5, positive control 1 (BMS-777607) and positive control 2 (AMG-510), respectively, while replacing the medium. After 48 hours, the cells and the cell fluid were harvested (1500 rpm, 4 min), and live cells and dead cells were quantified through trypan blue (15250-061, Gibco) exclusion assay. Statistical analysis was performed using T-test in Excel.

[2] = tested on: NCI-H460 (mRONΔ165) non-small cell lung cancer cell line transplanted mouse model; assay: Tumor growth inhibition in NCI-H460 transplanted animal model; format: in vivo; details: NCI-H460 xenograft, 50 mg/kg, once a day for 2 weeks
Description: (§2) It was confirmed whether tumor growth was inhibited by administering Example 1 (WM-S1-030) at a dose of 50 mpk to a mouse model transplanted with NCI-H460, which is a non-small cell lung cancer cell line of a mutation RONΔ165 type. Specifically, 5-week-old female BALB/c-nude mice were purchased and acclimatized for 1 week. Thereafter, NCI-H460 (2×10^6 cells/mouse), a non-small cell lung cancer cell line of a mutation RONΔ165 type, was diluted in PBS and Matrigel, and 200 μL was injected subcutaneously into the right dorsal side of the mouse. When the size of the tumor reached about 100 mm^3, the negative control (excipient) and Example 1 were orally administered. In this case, positive control 1 (BMS-777607) was administered at a dose of 50 mpk. The drug was administered once a day for 2 weeks, and the tumor size and body weight were measured twice a week. After the drug administration was completed, the mice were euthanized, the tumor was extracted, and the weight was measured.

[3] = tested on: NCI-H358 non-small cell lung cancer cell line of a mutation RONΔ155 type; assay: MTS assay, cell growth inhibitory ability, NCI-H358; format: cell-based; details: Homo sapiens; NCI-H358, RON mutation Δ155, 72 hours
Description: (§3) In order to compare and confirm the cell growth inhibitory ability of Examples 1 (WM-S1-030) to 5, positive control 1 (BMS-777607) and positive control 2 (AMG-510) in four non-small cell lung cancer cell lines of a mutation RONΔ155 type (Calu-6, A549, NCI-H358, NCI-H1944), MTS assay was carried out.
(§4) For MTS assay, 1,000 cells of each non-small cell lung cancer cell line per well were seeded in a 96-well-plate, and 24 hours later, treated with the compounds of Examples 1 to 5, positive control 1 and positive control 2 at various concentrations ([…]) in 100 μL of 10% FBS-RPMI medium (Welgene) per each well. Thereafter, the cells were cultured for 72 hours, and then 20 μL of MTS solution (Promega) was added and cultured for 2 hours, and then absorbance was measured at 490 nm. The cytotoxicity was analyzed by deriving the IC50 for the compounds of Examples 1 to 5, positive control 1 and positive control 2 using GraphPad Prism™ 5.

[4] = tested on: NCI-H358 non-small cell lung cancer cell line of a mutation RONΔ155 type; assay: Cell killing efficacy, trypan blue exclusion assay, NCI-H358; format: cell-based; details: NCI-H358, 1 μM, 48 hours, FIG. 1
Description: as §1

[5] = tested on: NCI-H1944 non-small cell lung cancer cell line of a mutation RONΔ155 type; assay: MTS assay, cell growth inhibitory ability, NCI-H1944; format: cell-based; details: Homo sapiens; NCI-H1944, RON mutation Δ155, 72 hours
Description: as §3, §4

[6] = tested on: Calu-6 non-small cell lung cancer cell line of a mutation RONΔ155 type; assay: MTS assay, cell growth inhibitory ability, Calu-6; format: cell-based; details: Homo sapiens; Calu-6, RON mutation Δ155, 72 hours
Description: as §3, §4

[7] = tested on: A549 non-small cell lung cancer cell line of a mutation RONΔ155 type; assay: MTS assay, cell growth inhibitory ability, A549; format: cell-based; details: Homo sapiens; A549, RON mutation Δ155, 72 hours
Description: as §3, §4

[8] = tested on: NCI-H358 (mRONΔ155) non-small cell lung cancer cell line transplanted mouse model; assay: Tumor growth inhibition in NCI-H358 transplanted animal model; format: in vivo; details: NCI-H358 xenograft, orally once a day for 38 days
Description: as §2, with “3 mpk, 10 mpk and 30” for “50”, “NCI-H358,” for “NCI-H460,”, “RONΔ155” for “RONΔ165”, “NCI-H358 (5×10^6” for “NCI-H460 (2×10^6”, “administered.” for “administered. In this case, positive control 1 (BMS-777607) was administered at a dose of 50 mpk.”, “38 days,” for “2 weeks,”

[9] = tested on: A549 (mRONΔ155) non-small cell lung cancer cell line transplanted mouse model; assay: Tumor growth inhibition in A549 transplanted animal model; format: in vivo; details: A549 xenograft, 50 mg/kg, orally once a day for 3 weeks
Description: It was confirmed whether tumor growth was inhibited by administering Example 1 (WM-S1-030) at a dose of 50 mpk to a mouse model transplanted with A549, which is a non-small cell lung cancer cell line of a mutation RONΔ155 type. Specifically, 5-week-old female BALB/c-nude mice were purchased and acclimatized for 1 week. Thereafter, A549 (5×10^6 cells/mouse), a non-small cell lung cancer cell line of a mutation RONΔ155 type, was diluted in PBS (phosphate buffered saline), and 100 μL was injected subcutaneously into the right dorsal side of the mouse. When the size of the tumor reached about 100 mm^3, the negative control (excipient) and Example 1 were orally administered. The drug was administered once a day for 3 weeks, and the tumor size and body weight were measured twice a week. After the drug administration was completed, the mice were euthanized, the tumor was extracted, and the weight was measured.

[10] = tested on: pTyr-mRON, cleaved caspase 3, cyclin D1 in NCI-H460 (mRONΔ165) tumor; assay: Protein expression change by immunochemical staining of tumor tissue, NCI-H460 transplanted animal model; format: in vivo, mouse; details: 30 mpk, 50 mpk, FIG. 6
Description: (§5) Example 1 (WM-S1-030) was administered at each concentration (30 mpk, 50 mpk) and positive control 1 was administered at a dose of 50 mpk to a mouse model transplanted with NCI-H460, which is a non-small cell lung cancer cell line of a mutation RONΔ165 type, and then the tumor was extracted, and the expression changes of the proteins were analyzed by immunochemical staining.
(§6) Specifically, paraffin slides were prepared using tissues isolated from the sacrificed mice. The tissue sections were deparaffinized and rehydrated, immersed in the target recovery buffer 1×(ScyTek Laboratories, Cat #CBB999) and heated for 15 minutes to perform an antigen recovery process. After the reaction, the tissue sections were washed in Tris buffered saline-0.05% Tween 20 (TBS-T)(T&I, BTT-9310) for 5 minutes, and then the reaction was performed with a non-specific antibody response blocking reagent (vector, SP-5035) for 1 hour.
(§7) The tissue sections were cultured at 4° C. overnight with mRON (Abcam, ab52927, 1:50), pTyr-mRON (Mybioscience, MBS462024, 1:100), cleaved caspase 3 (Asp175)(R&D Systems, MAB835, 1:50), cyclin D1 (cyclin D1 (SP4), #Z2027RS, 1:100) and then washed with TBS-T for 5 minutes, and then endogenous peroxidase activity was blocked using a peroxidase blocking reagent (Cellmarque, 925B-05). Thereafter, the tissue sections were washed with TBS-T for 5 minutes and then incubated with a rabbit secondary antibody (vector, PK-6101) at room temperature for 1 hour. The tissue sections were washed with TBS-T for 5 minutes and then colored with diaminobenzidine (cat #SK-4100). In order to stain the nuclei of the tissues, they were stained with hematoxylin (ScyTek Laboratories, HMM999) for 1 minute, dehydrated, and then encapsulated.

[11] = tested on: pTyr-mRON, cleaved caspase 3, cyclin D1 in NCI-H358 (mRONΔ155) tumor; assay: Protein expression change by immunochemical staining of tumor tissue, NCI-H358 transplanted animal model; format: in vivo, mouse; details: 3 mpk, 10 mpk, 30 mpk, FIG. 4
Description: as §5, with “(3” for “(30”, “10 mpk, 30” for “50”, “mpk)” for “mpk) and positive control 1 was administered at a dose of 50 mpk”, “NCI-H358,” for “NCI-H460,”, “RONΔ155” for “RONΔ165”
as §6
as §7, with “MAB835, 1:50), and cyclin D1” for “MAB835, 1:50), cyclin D1”

Structure (SMILES)	Cell killing efficacy (cell death) [1]	Tumor growth inhibition rate (TGI, %) [2] [%]	IC50 [3] [nM]	Cell killing efficacy (cell death) [4]	IC50 [5] [nM]	IC50 [6] [nM]	IC50 [7] [nM]	Tumor growth inhibition rate (TGI, %) ([8]; 3 mg/kg) [%]	Tumor growth inhibition rate (TGI, %) ([8]; 10 mg/kg) [%]	Tumor growth inhibition rate (TGI, %) ([8]; 30 mg/kg) [%]	Tumor growth inhibition rate (TGI, %) [9] [%]	expression of cleaved caspase 3 [10]	expression of cyclin D1, a PD marker [10]	expression of pTyr-mRON [10]	expression of cleaved caspase 3 [11]	expression of cyclin D1, a PD marker [11]	expression of pTyr-mRON [11]
CCOc1ccn(-c2ccc(F)cc2)c(=O)c1C(=O)Nc1ccc(Oc2ccnc(N)c2Cl)c(F)c1 [Positive control 1, N-{4-[(2-amino-3-chloro-4-pyridinyl)oxy]-3-fluorophenyl}-4-ethoxy-1-(4-fluorophenyl)-2-oxo-1,2-dihydro-3-pyridinecarboxamide, reference compound]	response to the drug was low	26.1 ± 1.7	> 10000	response to the drug was low	> 10000	> 10000	> 10000	–	–	–	–	–	–	–	–	–	–
CCOc1ccn(-c2ccc(F)cc2)c(=O)c1C(=O)Nc1ccc(Oc2ccnc3cc(-c4ccc(CN5CCOCC5)cn4)sc23)c(F)c1.Cl [Example 1, 4-ethoxy-N-[3-fluoro-4-({2-[5-(morpholinomethyl)pyridin-2-yl]thieno[3,2-b]pyridin-7-yl}oxy)phenyl]-1-(4-fluorophenyl)-2-oxo-1,2-dihydropyridine-3-carboxamide hydrochloride]	–	69.7 ± 5.4	1270	–	1620	720	2020	12.3 ± 13.8	64.5 ± 6.2	91.0 ± 2.3	58.9 ± 3.8	induced	decreased	decreased	induced	decreased	decreased
COc1cc2c(Oc3ccc(NC(=O)c4c5c(cn(-c6ccc(F)cc6)c4=O)CCO5)cc3F)ccnc2cc1OCCN1CCOCC1 [Example 4, N-(3-fluoro-4-{[6-methoxy-7-(2-morpholinoethoxy)quinolin-4-yl]oxy}phenyl)-5-(4-fluorophenyl)-6-oxo-2,3,5,6-tetrahydrofuro[3,2-c]pyridine-7-carboxamide]	–	–	890	–	600	850	370	–	–	–	–	–	–	–	–	–	–
CCOc1ccn(-c2ccccc2)c(=O)c1C(=O)Nc1ccc(Oc2ccnc3cc(-c4ccc(CN5CCN(C)CC5)cn4)sc23)c(F)c1 [Example 3, hydrochloride]	–	–	2610	–	2160	1550	610	–	–	–	–	–	–	–	–	–	–
C=CC(=O)N1CCN(c2nc(=O)n(-c3c(C)ccnc3C(C)C)c3nc(-c4c(O)cccc4F)c(F)cc23)[C@@H](C)C1 [Positive control 2, reference compound]	response to the drug was low	–	50	response to the drug was low	> 10000	> 10000	> 10000	–	–	–	–	–	–	–	–	–	–
CCOc1ccn(-c2ccccc2)c(=O)c1C(=O)Nc1ccc(Oc2ccnc3cc(-c4ccc(CNCCOC)cn4)sc23)c(F)c1 [Example 2, 4-ethoxy-N-(3-fluoro-4-{[2-(5-{[(2-methoxyethyl)amino]methyl}pyridin-2-yl)thieno[3,2-b]pyridin-7-yl]oxy}phenyl)-2-oxo-1-phenyl-1,2-dihydropyridine-3-carboxamide hydrochloride]	–	–	9110	–	> 10000	7290	1940	–	–	–	–	–	–	–	–	–	–
COc1cc2c(Oc3ccc(NC(=O)c4c5c(cn(-c6ccc(F)cc6)c4=O)CCO5)cc3F)ccnc2cc1OCCCN1CC(C#N)C1 [Example 5, N-[4-({7-[3-(3-cyanoazetidin-1-yl)propoxy]-6-methoxyquinolin-4-yl}oxy)-3-fluorophenyl]-5-(4-fluorophenyl)-6-oxo-2,3,5,6-tetrahydrofuro[3,2-c]pyridine-7-carboxamide]	–	–	270	–	310	1330	190	–	–	–	–	–	–	–	–	–	–
